Test results: patent publication US12421249B2, “Inhibitors of APOL1 and methods of using same” (Vertex Pharmaceuticals Incorporated, priority 2020, dated 2025)
Like-named read-outs stand apart in the source and are kept apart here.

Columns and labels:
APOL1 G1 = biological target: T1, APOL1 G1 (Homo sapiens, UniProt O14791, I384M/S342G); assay: Trypanosoma brucei brucei Lysis Assay Using APOL1 Recombinant Protein (AlamarBlue viability readout); assay type: cell-based; details: for IC50: IP50 = IC50 for cell proliferation, read-out: Trypanosome Assay IP50; for Emax: read-out: Trypanosome Assay Max Activity (%)
T1 sequence (O14791 28-398 S342G/I384M): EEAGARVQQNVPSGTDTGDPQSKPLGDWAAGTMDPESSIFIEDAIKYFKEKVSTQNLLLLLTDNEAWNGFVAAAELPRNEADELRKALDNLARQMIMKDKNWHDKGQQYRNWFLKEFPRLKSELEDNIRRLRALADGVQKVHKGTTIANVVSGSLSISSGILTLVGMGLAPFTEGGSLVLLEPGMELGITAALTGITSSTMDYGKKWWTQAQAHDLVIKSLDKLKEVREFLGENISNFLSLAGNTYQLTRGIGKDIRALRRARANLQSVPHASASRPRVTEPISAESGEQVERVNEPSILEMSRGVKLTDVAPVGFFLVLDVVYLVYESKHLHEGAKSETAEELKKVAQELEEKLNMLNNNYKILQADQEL
Text: Trypanosoma brucei brucei is a blood stream parasite to which human, gorillas, and baboons are immune due to the presence of the APOL1 protein in their HDL particles. The protein is uptaken by the parasite via the TbHpHb receptor located in its flagellar pocket and is bonded by the Hpr protein contained in the HDL particles which triggers the receptor endocytosis by the parasite.
Following endocytosis, the formed vesicle containing the HDL particle matures from early to late endosome, and subsequently to lysosome. The concomitant pH change in the lumen of the vesicle triggers the insertion of the APOL1 protein into the membrane of the late endosome/lysosome and hereby triggers lysosomal membrane permeabilization and as a further downstream event, trypanosome lysis. Trypanosoma brucei brucei is sensitive to lysis by all three APOL1 variants (G0, G1, and G2).
The Trypanosoma brucei brucei lysis assay is a lysis assay of the parasite using recombinant APOL1 protein variant followed by a fluorescent detection method of viability by the addition of AlamarBlue reagent to the assay well, a general metabolic redox indicator (AlamarBlue assay).
Briefly, the AlamarBlue active compound, resazurin, a blue, water soluble, non-toxic and cell permeable molecule, which can be followed by absorbance, is reduced by various metabolic pathways into resorufin, a red compound which can be followed by either absorbance or fluorescence. The assay allows the calculation of the percent viability (percent of living Trypanosomes remaining in each well) at the end of a lysis relative to the untreated condition by interpolation of fluorescent values (FLU) on a standard curve with a known amount of seeded trypanosome/well.
Trypanosoma brucei brucei (ATCC, Cat. No. PRA-382)
• Lister 427 VSG 221 bloodstream form.
Equipment • E1-Clip Tip pipette 12 channel adjustable 2-125 μL, Cat. No. 4672070BT • ThermoFisher MultiDrop 384, Cat. No. 5840300 • Multidrop • Agilent Bravo, Cat. No. G5409A • Bravo • SpectraMax M5 Assay Ready Plates (ARPs) • ARPs comes in two formats: • […] final top concentration with a 2.5 fold dilution down. • […] final top concentration with a 3 fold dilution down. • Both have a 10 point Dose response. • 0.1% DMSO final in the Black Assay Plate. • Compounds are diluted 1000 fold in the Black Assay Plate. • Each plate is designed for 14 compounds in duplicate. • In the final Black Assay Plate: • Column 1: Media only (no APOL1) (100% viable) • Column 2-23: 0.05 μg/mL APOL1 (˜EC90) (10% viable with APOL1) • Column 24: 0.1 μg/mL APOL1 (EC100) (Approx. […] Step 2, Day 4 • Centrifuge at 800×g for 5 minutes at room temperature. • Resuspend in 1 mL media. • Make a 1:25 fold dilution (10 μL/240 μL media). • Count on a hemocytometer (after adding parasites). • Let sit for 1-2 minutes for the parasites to settle. • Count should be approximately 100 viable motile parasites/16 grid or approximately 25×10^6 parasites/flask. • Passage the parasites by adding 1×10^6 parasites/T75 flask in 20 mL media. • Passage the parasites by adding 2.33×10^6 parasites/T175 flask in 46.6 mL media. • For every T75 flask should make enough for approximately 1.5×384 well assay plates. • For every T175 flask should make enough for approximately 3.8×384 well assay plates. Step 3, Day 6 • Centrifuge at 800×g for 5 minutes. • Resuspend in 3 mL assay media (No phenol red, no FBS) per 75 starting flask. • Resuspend in 7 mL assay media (No phenol red, no FBS) per 175 flask • Make a 1:25 fold dilution. • Count by hemocytometer. • Every T75 flask set up should have approximately 75×10^6 parasites/flask (verify doubling time=8.7 hours±1 hour). • Every T175 flask set up should have approximately 175×10^6 parasites/flask (verify doubling time=8.7 hours±1 hour). • Require 46×10^6 parasites per 384 well plate (at 120,000 parasites per well). […]

APOL1 = biological target: T2, APOL1 (Homo sapiens, UniProt O14791); assay: Multi-Tox Assay (MultiTox-Fluor Multiplex Cytotoxicity Assay in tet-inducible APOL1 T-REx-HEK293 cells; Table 46 does not say which APOL1 variant G0/G1/G2); assay type: cell-based; details: APOL1 variant not given; for IC50: IP50 = IC50 for cell proliferation
T2 sequence (O14791 1-398 S342G/I384M): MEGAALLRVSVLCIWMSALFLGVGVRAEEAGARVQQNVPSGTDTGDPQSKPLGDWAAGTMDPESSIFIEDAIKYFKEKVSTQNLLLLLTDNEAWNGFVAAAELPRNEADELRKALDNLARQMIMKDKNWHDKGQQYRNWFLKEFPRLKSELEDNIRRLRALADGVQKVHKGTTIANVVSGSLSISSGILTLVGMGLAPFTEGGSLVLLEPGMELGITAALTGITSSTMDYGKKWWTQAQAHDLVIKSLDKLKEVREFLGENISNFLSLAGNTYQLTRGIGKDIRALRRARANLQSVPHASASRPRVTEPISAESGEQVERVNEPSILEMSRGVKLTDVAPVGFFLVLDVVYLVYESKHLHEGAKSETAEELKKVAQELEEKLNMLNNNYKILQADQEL

| Structure (SMILES) | IC50 (APOL1 G1; Trypanosome Assay) | Emax (APOL1 G1; Trypanosome Assay) | IC50 (APOL1) | Emax (APOL1 G1) | IC90 (APOL1) | Multi-Tox Assay Max Activity (%) (APOL1) |
| --- | --- | --- | --- | --- | --- | --- |
| COc1ccc(C2CC3(CC(C)N2)OCCc2cc(Cl)sc23)nn1 (mixture of isomers) [Compound 76] | < 50 nM | 106% | < 50 nM |  |  |  |
| COc1cccc(C2CC3(CC(C)N2)OCCc2cc(Cl)sc23)n1 (mixture of isomers) [Compound 135] | 50 to 500 nM | 94% | 50 to 500 nM |  |  |  |
| CC1CC2(CC(C)N1)OCCc1cc(Cl)sc12 (mixture of isomers) [Compound 194, 2-chloro-2′,6′-dimethyl-spiro[4,5-dihydrothieno[2,3-c]pyran-7,4′-piperidine]] | 50 to 500 nM |  | 50 to 500 nM | 117% |  |  |
| CC1CC2(CC(CO)N1)OCCc1cc(Cl)sc12 (mixture of isomers) [Compound 210, (2-chloro-6′-methyl-spiro[4,5-dihydrothieno[2,3-c]pyran-7,4′-piperidine]-2′-yl)methanol] | > 500 nM | 104% | > 500 nM |  |  |  |
| CC1CC2(CC(C3CC3)N1)OCCc1cc(Cl)sc12 (mixture of isomers) [Compound 211, (2S,6S)-2-chloro-2′-cyclopropyl-6′-methyl-spiro[4,5-dihydrothieno[2,3-c]pyran-7,4′-piperidine]] | 50 to 500 nM | 113% | < 50 nM |  | 50 to 500 nM | 99.6% |
| CC1CC2(CC(C(C)C)N1)OCCc1cc(Cl)sc12 (mixture of isomers) [Compound 214] | 50 to 500 nM | 109% | < 50 nM |  |  |  |
| CCC1CC2(CC(C)N1)OCCc1cc(Cl)sc12 (mixture of isomers) [Compound 215] | 50 to 500 nM | 112% | < 50 nM |  |  |  |
| CC1CC2(CC(C3CCOCC3)N1)OCCc1cc(Cl)sc12 (mixture of isomers) [Compound 216] | 50 to 500 nM | 104% | 50 to 500 nM |  |  |  |
| CC1CC2(CC(C3CC3)N1)OCCc1cc(Cl)sc12 (mixture of isomers) [Compound 217] | < 50 nM | 110% | < 50 nM |  |  |  |
| CC1CC2(CC(C3CCC3)N1)OCCc1cc(Cl)sc12 (mixture of isomers) [Compound 218] | 50 to 500 nM | 111% | < 50 nM |  |  |  |
| CC1CC2(CC(c3cccnc3)N1)OCCc1cc(Cl)sc12 (racemic) [Compound 20, 2-chloro-2′-methyl-6′-(3-pyridyl)spiro[4,5-dihydrothieno[2,3-c]pyran-7,4′-piperidine]] | < 50 nM |  | < 50 nM | 116% |  |  |
| Cc1cc([C@@H]2C[C@]3(C[C@H](C)N2)OCCc2cc(Cl)sc23)ccn1 (racemic) [Compound 21, (2S)-2-chloro-2′-methyl-6′-(2-methyl-4-pyridyl)spiro[4,5-dihydrothieno[2,3-c]pyran-7,4′-piperidine]] | < 50 nM | 108% | < 50 nM |  |  |  |
| CC1CC2(CC(c3cn(C)cn3)N1)OCCc1cc(Cl)sc12 (racemic) [Compound 22] | < 50 nM | 129% | < 50 nM |  | < 50 nM | 99.7% |
| Cc1noc2cc([C@@H]3C[C@]4(C[C@H](C)N3)OCCc3cc(Cl)sc34)ccc12 (racemic) [Compound 25] | < 50 nM | 109% | < 50 nM |  |  | 100.0% |
| C[C@H]1C[C@@]2(C[C@@H](c3cnc4c(cnn4C)c3)N1)OCCc1cc(Cl)sc12 (racemic) [Compound 26] | < 50 nM | 110% | < 50 nM |  |  | 100.0% |
| C[C@H]1C[C@@]2(C[C@@H](c3ccc4oc(=O)n(C)c4c3)N1)OCCc1cc(Cl)sc12 (racemic) [Compound 28] | < 50 nM | 104% | < 50 nM |  | < 50 nM | 100.0% |
| Cc1cc([C@@H]2C[C@]3(C[C@H](C)N2)OCCc2cc(Cl)sc23)no1 (racemic) [Compound 29] | < 50 nM | 109% | < 50 nM |  | < 50 nM | 100.0% |
| C[C@H]1C[C@@]2(C[C@@H](c3ccc4c(c3)n(C)c(=O)n4C)N1)OCCc1cc(Cl)sc12 (racemic) [Compound 32] | < 50 nM | 116% | < 50 nM |  | < 50 nM | 99.6% |
| COCCOCCOc1ccc([C@@H]2C[C@]3(C[C@H](C)N2)OCCc2cc(Cl)sc23)cc1 (racemic) [Compound 36] | < 50 nM | 118% | < 50 nM |  | < 50 nM | 100.0% |
| C[C@H]1C[C@@]2(C[C@@H](c3cn(C)nn3)N1)OC[C@H](O)c1cc(Cl)sc12 [Compound 177, (2′S,4R,6′S,7S)-2-chloro-2′-methyl-6′-(1-methyltriazol-4-yl)spiro[4,5-dihydrothieno[2,3-c]pyran-7,4′-piperidine]-4-ol] | 50 to 500 nM | 107% |  |  |  |  |
| C[C@H]1C[C@@]2(C[C@@H](c3cn(CC(=O)N4CCCCC4)nn3)N1)OCC(F)(F)c1cc(Cl)sc12 [Compound 356] |  |  | 50 to 500 nM |  | 50 to 500 nM | 99.0% |
| C[C@H]1C[C@@]2(C[C@@H](c3cn(CC4(CO)CC4)nn3)N1)OCC(F)(F)c1cc(Cl)sc12 [Compound 357] |  |  | 50 to 500 nM |  |  | 99.0% |
| C[C@H]1C[C@@]2(C[C@@H](c3cn(Cc4cnc5cnccn45)nn3)N1)OCC(F)(F)c1cc(Cl)sc12 [Compound 358] |  |  | < 50 nM |  |  | 98.0% |
| C[C@H]1C[C@@]2(C[C@@H](c3cn(CCCO)nn3)N1)OCC(F)(F)c1cc(Cl)sc12 [Compound 359] |  |  | < 50 nM |  |  | 98.0% |
| COc1ccc(Cn2cc([C@@H]3C[C@]4(C[C@H](C)N3)OCC(F)(F)c3cc(Cl)sc34)nn2)cn1 [Compound 360] |  |  | 50 to 500 nM |  |  | 99.0% |
